Test results reported in patent US20170152245A1 (National Taiwan University, priority 2015, published 2017).

Tests used:
[1] = test system: mesenteric venules of mice; experiment: Fluorescein sodium-induced platelet thrombus formation in mesenteric venules of mice; format: in vivo; conditions: for average time to occlusion (TTO): 10 μg/g i.v., mice; for occlusion time: i.v., 5 min after administration
Procedure: A modification of the method was used. Male ICR mice (12-14 g) were anesthetized with sodium pentobarbital (50 mg/kg, i.p.). […] Five min later, various doses of nstpbp5185 (2 and 4 μg/g), aspirin (150 and 250 μg/g), or DMSO (control) were administered by i.v. through other lateral tail vein. The injected volume of the nstpbp5185, aspirin, or DMSO (control) was smaller than 10 μl. A segment of the small intestine with its mesentery attached was exteriorized through a midline incision on the abdominal wall and placed onto a transparent plastic plate for microscopic observation. Frequent rinsing of the mesentery with warm isotonic saline kept at 37° C. was performed to prevent the mesentery from drying out. Microvessels in the mesentery were observed under transillumination from a halogen lamp. Venules with diameters of 30-40 μm were selected to be irradiated to produce a microthrombus. In the epi-illumination system, light from a 100-W mercury lamp was filtered through a filter (B-2A, Nikon, Tokyo, Japan) with a dichromic mirror (DM 510, Nikon). The filtered light eliminated wavelengths below 520 nm irradiated a microvessel through an objective lens (20×). The area of irradiation was about 100 μm in diameter on the focal plane. Ten minutes after administration of the dye, the irradiation by filtered light and a timer were simultaneously started, and thrombus formation was observed on a TV-monitor. Occlusion time was recorded as the time interval for inducing thrombus formation leading to cessation of blood flow.
After giving 50 μg/g fluorescein sodium, the irradiation of mesenteric venules induced thrombus formation which is consist of activated platelets and fibrin clots. […] In the vehicle-treated group, the average TTO was approximately 143.71±4.99 sec (n=17). The group pre-treated with compound 5185 (10 μg/g), the average TTO value was 208.67±6.99 sec (n=12).

[2] = test system: human platelet-rich plasma; experiment: Arachidonic acid-induced platelet aggregation in human platelet-rich plasma; format: cell-based; conditions: arachidonic acid 200 μM
Procedure: (§1) Human platelet suspension (PS) was prepared according to the method described previously. Briefly, blood sample, freshly obtained from healthy volunteers who had taken no medications during the preceding 2 weeks, was treated with acid citrate/dextrose (ACD) in a volume ratio of 9:1. After centrifugation at 120 g, 25° C. for 9 min, platelet-rich plasma was transferred into another plastic tube and incubated with heparin (6.4 U/ml) as well as prostaglandin E1 (1 μM). Platelets were spun down by centrifugation at 500 g, 25° C. for 8 min and subsequently washed two times with Tyrode solution (NaH2PO4 0.4 mM; NaCl 136.9 mM; KCl […]; NaHCO3 11.9 mM; CaCl2 2 mM; MgCl2 2.1 mM; glucose 11.1 mM; BSA 3.5 mg/ml; pH 7.35-7.4). The washed platelets were finally suspended in Tyrode's solution and the platelet count was adjusted to 3.75×10^8 platelets/ml. For platelet-rich plasma (PRP) preparation, whole blood was anticoagulated with 1/10 vol of sodium citrate (3.8%, w/v) and centrifuged at 150 g, 25° C. for 9 min.
(§2) Platelet aggregation was measured turbidimetrically with a Lumi-aggregometer (Payton Scientific) at 37° C. under stirring condition (900 rpm). […] The extent of platelet aggregation was determined by recording the increase of light transmission relative to that of control (maximal aggregation, as 100%) for 6 min after the addition of inducer. […]

washed human platelets = experiment: LDH assay in washed human platelets; format: cell-based; conditions: 10 μM
Description: To begin with, potency of aggregation inhibition and estimated the IC50 of Ctkf6f2 on platelet aggregation caused by different agonists was investigated. […] In addition, the effect of Ctkf6f2 in platelet-rich plasma was also investigated. […] Furthermore, concentration-dependent inhibition curve in platelet suspension and platelet-rich plasma could be observed as well from FIG. 3. Moreover, LDH assay in washed human platelets with various Ctkf6f2 concentration used in the following experiments was performed.

[3] = test system: human platelet-rich plasma; experiment: Collagen-induced platelet aggregation in human platelet-rich plasma; format: cell-based
Procedure: as §1
(§3) Platelet aggregation was measured turbidimetrically with a Lumi-aggregometer (Payton Scientific) at 37° C. under stirring condition (900 rpm). Platelet suspensions were prewarmed to 37° C. for 2 min in a silicone-treated glass cuvette. Nstpbp5185 was added 3 min before the addition of platelet-aggregation inducers. The extent of platelet aggregation was determined by recording the increase of light transmission relative to that of control (maximal aggregation, as 100%) for 6 min after the addition of inducer. The final volume and platelet count for measuring platelet aggregation were 500 μl and 3×10^8/ml, respectively.

[4] = test system: human platelet suspension; experiment: ADP-induced platelet aggregation in human platelet suspension; format: cell-based
Procedure: as §1, §3

[5] = test system: human platelet suspension; experiment: Thrombin-induced platelet aggregation in human platelet suspension; format: cell-based; conditions: data not shown
Procedure: as §1, §2

rat carotid artery = experiment: Balloon-injury rat carotid artery model (neointima formation); format: in vivo; conditions: 1 or 2 mg/kg/day intraperitoneally for 2 weeks; rats
Procedure: We used the established rat carotid artery (CA) model of balloon angioplasty to examine the in vivo arterial response to injury^20. Briefly, male Wistar rats weighing 350-400 g were anesthetized with intraperitoneal pentobarbital (50 mg/kg), and the left CA was exposed. A Fogarty 2F embolectomy balloon catheter was inserted into the left external carotid artery through arteriotomy incision and advanced to the aortic arch. The balloon was inflated and withdrawn three times with rotation at the same pressure. Followed by removal of the catheter, the external carotid artery was ligated and the wound closed. Animals were given standard rat chow and tap water, and i.p. administered 1 and 2 mg/kg or vehicle daily for 2 weeks, at which time they were sacrificed, and the sections from both the right and left (collateral control group) CA were harvested to fix with 4% paraformaldehyde in PBS overnight for study. All procedures involving animal experiments were approved by the Institutional Animal Care and Use Committee of Collagen of Medicine, National Taiwan University.
We further determined the inhibitory effect of nstpbp5185 on neointima formation after carotid artery injury. […] (FIG. 16G) Data are quantified by the neointima/media ratio of common carotid arteries after balloon injury. […]

Cc1ccc(-c2nc3ccc(F)cc3n2Cc2cccc(F)c2)o1 [Ctkf6f2, 6-fluoro-1-(3-fluorobenzyl)-2-(5-methyl-2-furyl)benzimidazole]
average time to occlusion (TTO) [1]: 267.93 ± 12.64 s
IC50 [2]: 8.87 ± 2.52 µM
cytotoxicity to platelets (LDH assay) (washed human platelets): little cytotoxicity
IC50 ([3]; Homo sapiens, collagen 5 μg/ml, read-out: IC50 collagen-induced aggregation in platelet-rich plasma): 31.3 ± 7.68 µM

Cc1ccc(-c2nc3ccccc3n2Cc2ccccc2)o1 [Example 6, 1-Benzyl-2-(5-methyl-2-furyl)benzimidazole]
occlusion time within 70 min after administration ([1]; 4 μg g^−1 i.v.): 157.5 ± 12.5 s
time until occlusion time returned to the control value ([1]; 4 μg g^−1 i.v.): ≤ 90 min
average time to occlusion (TTO) [1]: 208.67 ± 6.99 s
occlusion time ([1]; 4 μg/g): 170.9 ± 28.0 s
occlusion time ([1]; first dose of 'respectively' (2 μg/g)): 110.5 ± 18.0 s
effect on platelet aggregation caused by ADP ([4]; data not shown): little effects
% inhibition ADF ([4]; human platelet suspension, preliminary, compound concentration not given): 10.9%
effect on platelet aggregation caused by thrombin [5]: little effects
IC50 ([3]; human PRP, data not shown, read-out: IC50 collagen-induced platelet aggregation in human PRP): 64.2 ± 2.5 µM
N/M ratio (neointima/media) (rat carotid artery): significantly inhibited
